Measured values as given in patent US20230131402A1, “SPIRO-LACTAM NMDA RECEPTOR MODULATORS AND USES THEREOF” (Aptinyx Inc., priority 2016, published 2023).
Like-named read-outs stand apart in the source and are kept apart here.

Assays:
[1] = target: T1, NMDAR2A (Homo sapiens, UniProt Q12879); assay: [3H]MK-801 binding, NMDAR2A expressing HEK cell membranes; assay type: biochemical; details: for Emax: read-out: NMDAR2A A: % maximal [3H]MK-801 binding relative to 1 mM glycine
T1 construct: expressed in transfected cells; host or cells: HEK cells (membrane extract)
T1 sequence (Q12879 23-1464, species assumed, other chains not shown): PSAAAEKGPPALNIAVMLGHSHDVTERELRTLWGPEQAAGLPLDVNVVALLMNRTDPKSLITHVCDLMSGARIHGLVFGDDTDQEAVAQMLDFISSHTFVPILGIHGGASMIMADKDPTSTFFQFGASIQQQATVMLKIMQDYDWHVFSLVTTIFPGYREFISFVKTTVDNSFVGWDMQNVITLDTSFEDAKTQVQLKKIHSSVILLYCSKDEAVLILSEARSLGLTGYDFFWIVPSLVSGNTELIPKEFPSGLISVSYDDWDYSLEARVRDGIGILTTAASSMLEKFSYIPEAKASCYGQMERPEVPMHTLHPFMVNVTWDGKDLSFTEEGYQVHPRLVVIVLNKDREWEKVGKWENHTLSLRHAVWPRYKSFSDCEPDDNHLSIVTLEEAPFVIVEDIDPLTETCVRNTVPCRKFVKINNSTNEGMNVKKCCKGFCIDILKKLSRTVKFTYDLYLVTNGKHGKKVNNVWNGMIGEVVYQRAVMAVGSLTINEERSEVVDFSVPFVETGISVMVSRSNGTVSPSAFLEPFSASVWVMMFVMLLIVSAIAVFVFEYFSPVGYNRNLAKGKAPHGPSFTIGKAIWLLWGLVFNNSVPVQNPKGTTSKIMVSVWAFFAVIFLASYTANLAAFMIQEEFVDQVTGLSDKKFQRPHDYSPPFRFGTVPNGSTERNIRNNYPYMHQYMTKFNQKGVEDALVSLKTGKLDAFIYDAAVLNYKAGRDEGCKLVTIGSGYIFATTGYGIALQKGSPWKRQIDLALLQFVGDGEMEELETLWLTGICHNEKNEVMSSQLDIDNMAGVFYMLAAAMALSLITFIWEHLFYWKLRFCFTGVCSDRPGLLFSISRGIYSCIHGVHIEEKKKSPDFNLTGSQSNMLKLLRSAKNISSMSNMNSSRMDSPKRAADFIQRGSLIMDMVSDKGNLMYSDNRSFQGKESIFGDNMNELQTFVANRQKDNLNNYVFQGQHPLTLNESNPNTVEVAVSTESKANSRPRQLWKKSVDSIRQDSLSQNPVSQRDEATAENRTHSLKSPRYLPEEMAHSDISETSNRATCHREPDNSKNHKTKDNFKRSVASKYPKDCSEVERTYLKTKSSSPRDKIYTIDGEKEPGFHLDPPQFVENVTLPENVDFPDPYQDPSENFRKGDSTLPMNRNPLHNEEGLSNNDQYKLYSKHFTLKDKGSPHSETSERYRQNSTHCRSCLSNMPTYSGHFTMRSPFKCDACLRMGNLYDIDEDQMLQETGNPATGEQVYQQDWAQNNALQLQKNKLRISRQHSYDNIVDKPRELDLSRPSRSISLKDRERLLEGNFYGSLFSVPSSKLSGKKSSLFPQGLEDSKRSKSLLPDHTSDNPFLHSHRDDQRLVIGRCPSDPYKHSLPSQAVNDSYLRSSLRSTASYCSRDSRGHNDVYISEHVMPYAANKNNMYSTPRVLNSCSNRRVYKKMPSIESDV
Method: (§1) Assays were conducted as described by Moskal et al., “GLYX-13: a monoclonal antibody-derived peptide that acts as an N-methyl-D-aspartate receptor modulator,” Neuropharmacology, 49, 1077-87, 2005. These studies were designed to determine if the test compounds act to facilitate NMDAR activation in NMDAR2A, NMDAR2B, NMDAR2C or NMDAR2D expressing HEK cell membranes as measured by increases in [^3H]MK-801 binding.
(§2) In the assay, 300 μg of NMDAR expressing HEK cell membrane extract protein was preincubated for 15 minutes at 25° C. in the presence of saturating concentrations of glutamate (50 μM) and varying concentrations of test compound (1×10^−15M−1×10^−7M), or 1 mM glycine. Following the addition of 0.3 μCi of [^3H]MK-801 (22.5 Ci/mmol), reactions were again incubated for 15 minutes at 25° C. (nonequilibrium conditions). Bound and free [^3H]MK-801 were separated via rapid filtration using a Brandel apparatus.
(§3) In analyzing the data, the DPM (disintegrations per minute) of [^3H]MK-801 remaining on the filter were measured for each concentration of test compound or for 1 mM glycine. The DPM values for each concentration of a ligand (N=2) were averaged. The baseline value was determined from the best fit curve of the DPM values modeled using the GraphPad program and the log(agonist) vs. response(three parameters) algorithm was then subtracted from all points in the dataset. The % maximal [^3H]MK-801 binding was then calculated relative to that of 1 mM glycine: all baseline subtracted DPM values were divided by the average value for 1 mM glycine. The EC50 and % maximal activity were then obtained from the best fit curve of the % maximal [^3H]MK-801 binding data modelled using the GraphPad program and the log(agonist) vs. response(three parameters) algorithm.
(§4) The tables below summarize the results for the wild type NMDAR agonists NMDAR2A, NMDAR2B, NMDAR2C, and NMDAR2D, and whether the compound is not an agonist (−), is an agonist (+), or is a strong agonist (++), where column A is based on the % maximal [^3H]MK-801 binding relative to 1 mM glycine (−=0; <100%=+; and >100%=++); and column B is based on log EC50 values (0=−; ≥1×10^−9M (e.g., −8)=+; and <1×10^−9M (e.g., −10)=++).

[2] = target: T2, NMDAR2B (Homo sapiens, UniProt Q13224); assay: [3H]MK-801 binding, NMDAR2B expressing HEK cell membranes; assay type: biochemical; details: for Emax: read-out: NMDAR2B A: % maximal [3H]MK-801 binding relative to 1 mM glycine
T2 construct: expressed in transfected cells; host or cells: HEK cells (membrane extract)
T2 sequence (Q13224 27-1484, species assumed, other chains not shown): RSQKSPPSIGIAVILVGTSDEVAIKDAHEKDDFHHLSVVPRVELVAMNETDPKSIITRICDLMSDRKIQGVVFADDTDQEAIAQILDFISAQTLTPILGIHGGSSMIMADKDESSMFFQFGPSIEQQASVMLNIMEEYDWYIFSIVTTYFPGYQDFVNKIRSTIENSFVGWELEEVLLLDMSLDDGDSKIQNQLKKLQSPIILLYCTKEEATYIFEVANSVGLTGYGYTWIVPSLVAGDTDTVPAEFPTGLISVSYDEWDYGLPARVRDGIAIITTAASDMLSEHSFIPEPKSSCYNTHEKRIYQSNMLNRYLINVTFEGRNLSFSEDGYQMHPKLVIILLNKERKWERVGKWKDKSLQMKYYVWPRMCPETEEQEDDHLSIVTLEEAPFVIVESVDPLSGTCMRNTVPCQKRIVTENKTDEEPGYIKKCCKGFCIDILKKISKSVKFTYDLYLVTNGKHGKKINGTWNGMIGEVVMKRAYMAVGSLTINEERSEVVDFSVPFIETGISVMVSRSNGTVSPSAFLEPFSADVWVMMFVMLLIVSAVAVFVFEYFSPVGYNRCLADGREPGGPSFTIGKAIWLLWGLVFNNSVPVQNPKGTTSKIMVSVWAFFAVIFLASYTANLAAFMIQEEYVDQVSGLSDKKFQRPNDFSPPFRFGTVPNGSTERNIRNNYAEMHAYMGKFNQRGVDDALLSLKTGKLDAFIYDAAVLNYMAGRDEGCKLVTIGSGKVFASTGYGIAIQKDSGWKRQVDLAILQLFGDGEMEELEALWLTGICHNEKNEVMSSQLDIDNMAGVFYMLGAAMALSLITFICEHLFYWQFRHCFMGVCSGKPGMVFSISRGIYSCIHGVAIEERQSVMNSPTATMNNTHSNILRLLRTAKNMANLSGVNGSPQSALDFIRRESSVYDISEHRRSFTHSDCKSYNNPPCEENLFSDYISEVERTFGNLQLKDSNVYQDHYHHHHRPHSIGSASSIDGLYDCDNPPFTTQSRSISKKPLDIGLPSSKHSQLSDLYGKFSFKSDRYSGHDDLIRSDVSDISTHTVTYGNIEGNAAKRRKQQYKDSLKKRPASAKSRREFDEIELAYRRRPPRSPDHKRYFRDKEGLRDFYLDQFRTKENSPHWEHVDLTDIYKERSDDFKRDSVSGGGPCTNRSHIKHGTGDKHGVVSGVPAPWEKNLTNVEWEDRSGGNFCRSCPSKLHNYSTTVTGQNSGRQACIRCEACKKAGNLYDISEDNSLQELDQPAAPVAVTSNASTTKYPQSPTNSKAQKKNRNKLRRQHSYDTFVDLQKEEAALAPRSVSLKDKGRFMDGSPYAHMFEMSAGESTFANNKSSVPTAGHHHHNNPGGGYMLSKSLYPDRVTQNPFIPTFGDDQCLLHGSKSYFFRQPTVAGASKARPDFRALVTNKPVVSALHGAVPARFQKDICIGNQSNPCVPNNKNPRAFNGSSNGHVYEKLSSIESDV
Method: as §1, §2, §3, §4

[3] = IV pharmacokinetics; assay type: in vivo, Sprague Dawley rats; details: Sprague Dawley, rat, in vivo, iv, 2 mg/kg, normal saline (compounds marked * in 1% NMP and 99% normal saline); for C0: read-out: C0; for Vd: read-out: Vss
Description: The table below summarizes the results of the IV pharmacokinetics.

[4] = Oral pharmacokinetics (plasma, brain, CSF); details: rat, 10 mg/kg, per os; for bioavailability / AUC(0-t) / Cmax / Tmax: Sprague Dawley, plasma, po; for bioavailability: % F; for AUC(0-t): AUClast; for AUC(0-t) / Cmax / Tmax: normal saline (compounds marked * in 1% NMP and 99% normal saline)
Method: Plasma, brain, and CSF samples were analyzed at various time points over a 24 hour period.

[5] = test system: rats' response (reduced floating time); assay: Porsolt forced swim test; assay type: in vivo, Sprague Dawley rats; details: for % reduction in float time: relative to vehicle group
Method: A non-clinical in vivo pharmacology study (Porsolt assay) was performed to measure antidepressant-like effects. A negative control (0.5% sodium carboxymethyl cellulose in 0.9% sterile saline vehicle) and a positive control (fluoxetine) are shown for comparison against test compound. The study allowed for the evaluation of the effects of each compound on the Porsolt forced swim test as assessed by the rats' response (reduced floating time) during a 5-minute swimming test.
Male 2-3 month old Sprague Dawley rats were used (Harlan, Indianapolis, Ind.). Rats were housed in Lucite cages with aspen wood chip bedding, maintained on a 12:12 light:dark cycle (lights on at 5 AM), and given ad libitum access to Purina lab chow (USA) and tap water throughout the study.
The Porsolt forced swim test adapted for use in rats was performed as described by Burgdorf et al., (The long-lasting antidepressant effects of rapastinel (GLYX-13) are associated with a metaplasticity process in the medial prefrontal cortex and hippocampus. Neuroscience 308:202-211, 2015). Animals were placed in a 46 cm tall×20 cm in diameter clear glass tube filled to 30 cm with tap water (23±1° C.) for 15 min on the first day (habituation) and 5 min on the subsequent test day. Positive control fluoxetine was dosed 3 times (24 h, 5 h and 1 h) prior to testing. Animals were tested 1 h post-dosing with the test compounds or vehicle. Animals received a 15 min habituation session 1 day before the 5 min test. A subset of compounds tested at 1 h post-dosing were retested at 1 wk post-dosing in the same sets of animals. Water was changed after every other animal. Animals were videotaped, and floating time as defined as the minimal amount of effort required to keep the animals head above water was scored offline by a blinded experimenter with high inter-rater reliability (Pearson's r>0.9).
Each compound tested at dose level shown. Significance vs. vehicle group for each experiment is marked. […] A compound marked “No” was not statistically significant from vehicle. Data was averaged for test compound and vehicle groups (N approximately 8 per group) and the percent reduction in floating for group treated with test compound relative to group treated with vehicle is shown.

[6] = 50 μM glutamate, read-out: NMDAR2A B: log EC50 (converted)
[7] = 50 μM glutamate, read-out: NMDAR2B B: log EC50 (converted)
[8] = 1 wk post-dose, 0.1 mg/kg, 0.1 mg/kg
[9] = 1 wk post-dose, 0.1 mg/kg, Yes = p<=0.05 from vehicle
[10] = 1 h post-dose, 0.1 mg/kg, 0.1 mg/kg
[11] = 1 h post-dose, 0.1 mg/kg, Yes = p<=0.05 from vehicle

Structure (SMILES) | NMDAR2A A: % maximal [3H]MK-801 binding relative to 1 mM glycine ([1]; 50 μM glutamate) | EC50 [1, 6] | NMDAR2B A: % maximal [3H]MK-801 binding relative to 1 mM glycine ([2]; 50 μM glutamate) | EC50 [2, 7] | AUC(0-t) [3] | clearance [3] | half-life [3] | C0 [3] | Vd [3] | bioavailability [4] | AUC(0-t) [4] | Cmax [4] | Tmax [4] | other results
CC(C)C(=O)N1CCN(Cc2ccccc2)C2(CCNC2=O)C1 (stereo not drawn) [ES-321] | + (<100%=+) | > 1 nM | ++ (>100%=++) | < 1 nM | 577 ng·h/mL | 58.6 mL/min/kg | 10.2 min | 2570 ng/mL | 0.71 L/kg | 16% | 466 ng·h/mL | 795 ng/mL | 15 min | 
CC(=O)N1CCN(Cc2ccccc2)C2(CCNC2=O)C1 (stereo not drawn) [ES-320] | − (−=0) |  | − (−=0) |  |  |  |  |  |  |  |  |  |  | 
C[C@@H](O)[C@H](N)C(=O)N1CCNC2(CCNC2=O)C1 (stereo partly drawn) [ES-336] | + (<100%=+) | < 1 nM | + (<100%=+) | < 1 nM | 4770 ng·h/mL | 6.84 mL/min/kg | 820 min | 13700 ng/mL | 0.73 L/kg | 44% | 9820 ng·h/mL | 2690 ng/mL | 60 min | % reduction in float time [5, 8]: 86.5%; Significance vs. vehicle [5, 9]: Yes; % reduction in float time [5, 10]: 81.6%; Significance vs. vehicle [5, 11]: Yes; CSF Cmax [4]: 143 ng/mL; Brain Cmax [4]: 32 ng/mL
CC(C)(C)OC(=O)N1CCNC2(CCNC2=O)C1 (single isomer, unassigned) [EN, Tert-Butyl 1-Oxo-2,6,9-Triazaspiro[4.5]Decane-9-Carboxylate] | − (−=0) |  | − (−=0) |  |  |  |  |  |  |  |  |  |  | 
CC(C)C(=O)N1CCN(Cc2ccccc2)C2(CCNC2=O)C1 (stereo not drawn) [ES-322] | − (−=0) |  | − (−=0) |  |  |  |  |  |  |  |  |  |  | 
C[C@@H](O)[C@H](N)C(=O)N1CCNC2(CCNC2=O)C1 (stereo partly drawn) [ES-335] |  | < 1 nM |  | < 1 nM |  |  |  |  |  |  |  |  |  | Emax ([1]; 50 μM glutamate): < 100%; Emax ([2]; 50 μM glutamate): < 100%; % reduction in float time [5, 8]: 72.9%; Significance vs. vehicle [5, 9]: Yes; % reduction in float time [5, 10]: 58.5%; Significance vs. vehicle [5, 11]: Yes
O=C1NCCC12CNCCN2 (stereo not drawn) [ES-302] | − (−=0) |  | ++ (>100%=++) | < 1 nM | 1720 ng·h/mL | 18.9 mL/min/kg | 142 min | 6090 ng/mL | 1.33 L/kg | 12% | 1040 ng·h/mL | 340 ng/mL | 49.8 min | 
CN1CCN(Cc2ccccc2)C2(CCNC2=O)C1 (stereo not drawn) [ES-316] | + (<100%=+) |  | + (<100%=+) |  | 1110 ng·h/mL | 30.6 mL/min/kg | 138 min | 2090 ng/mL | 1.75 L/kg | 55% | 3030 ng·h/mL | 2770 ng/mL | 15 min | EC50 ([1]; read-out: NMDAR2A B: log EC50 (converted), 50 μM glutamate): < 1 nM; EC50 ([2]; read-out: NMDAR2B B: log EC50 (converted), 50 μM glutamate): < 1 nM; % reduction in float time [5, 8]: 42.4%; Significance vs. vehicle [5, 9]: Yes; % reduction in float time [5, 10]: 49.4%; Significance vs. vehicle [5, 11]: Yes; CSF Cmax [4]: 430.2 ng/mL; Brain Cmax [4]: 1583 ng/mL
CNCCC(Oc1ccc(C(F)(F)F)cc1)c1ccccc1 (stereo not drawn) [Fluoxetine, fluoxetine, reference compound] |  |  |  |  |  |  |  |  |  |  |  |  |  | Significance vs. vehicle ([5]; positive control, 20 mg/kg, dosed 3 times (24 h, 5 h and 1 h) prior to testing): Yes
CC(C)(C)OC(=O)N1CCNC2(CCNC2=O)C1 (single isomer, unassigned) [EM, Tert-Butyl 1-Oxo-2,6,9-Triazaspiro[4.5]Decane-9-Carboxylate] | + (<100%=+) | < 1 nM | ++ (>100%=++) | > 1 nM |  |  |  |  |  |  |  |  |  | 
CN1CCN(Cc2ccccc2)C2(CCNC2=O)C1 (stereo not drawn) [ES-315] |  | < 1 nM |  | < 1 nM |  |  |  |  |  |  |  |  |  | Emax ([1]; 50 μM glutamate): < 100%; Emax ([2]; 50 μM glutamate): < 100%; % reduction in float time [5, 8]: 25.0%; Significance vs. vehicle [5, 9]: No; % reduction in float time [5, 10]: 44.1%; Significance vs. vehicle [5, 11]: Yes
O=C1NCCC12CNCCN2 (stereo not drawn) [ES-301] |  |  |  | < 1 nM |  |  |  |  |  |  |  |  |  | Emax ([1]; 50 μM glutamate): 0%; Emax ([2]; 50 μM glutamate): < 100%
CC(C)(C)OC(=O)N1CCNC2(C1)CN(CC(N)=O)C2=O (stereo not drawn) [ER-142] | + (<100%=+) | < 1 nM | − (−=0) |  |  |  |  |  |  |  |  |  |  | 
O=C1NCC12CN(Cc1ccccc1)CCN2Cc1ccccc1 (single isomer, unassigned) [EA-2, 5,8-Dibenzyl-2,5,8-Triazaspiro[3.5]Nonan-1-One] | − (−=0) |  | − (−=0) |  |  |  |  |  |  |  |  |  |  | 
CC(C)(C)OC(=O)N1CCNC2(C1)CN(CC(N)=O)C2=O (stereo not drawn) [ER-141] | − (−=0) |  | + (<100%=+) | < 1 nM | 1670 ng·h/mL | 19.9 mL/min/kg | 33 min | 4280 ng/mL | 0.7 L/kg | 31% | 2620 ng·h/mL | 962 ng/mL | 49.8 min | CSF Cmax [4]: 42 ng/mL
